Assay results taken from patent US20150291598A1 (NOVARTIS AG, priority 2012, published 2015).

These compounds were tested on P. falciparum (NF54 or 3D7 strain) (assay: Assay for P. falciparum proliferation in infected human blood cells (SYBR Green)). Conditions: NF54 or 3D7 infected human erythrocytes, 72 hours; read-out: EC50 (nM), inhibitory efficacy in delaying P. falciparum proliferation in infected human blood cells.
Type: cell-based, Plasmodium falciparum
Method in brief: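 Infected erythrocytes (NF54 or 3D7; final 2.5% hematocrit, 0.3% parasitemia) were incubated with compounds for 72 h at 37 °C in low oxygen (3% O2, 4% CO2, 93% N2).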

Work on `O=C(c1cn2c(-c3ccc(C(F)(F)F)cc3)cnc2cn1)N1CCOc2ccccc21` [Compound 306, ({3-[4-(trifluoromethyl)phenyl]imidazo[1,2-a]pyrazin-6-yl}carbonyl)-3,4-dihydro-2H-1,4-benzoxazine] yielded an EC50 of 607 nM.

Same assay, conditions: Plasmodium falciparum, 3D7|NF54, Erythrocyte, in Homo sapiens, 72 h, NF54 or 3D7 infected human erythrocytes, 72 hours; read-out: EC50 (nM), inhibitory efficacy in delaying P. falciparum proliferation in infected human blood cells

First: Cc1ccnc(N(C)C(=O)c2cn3c(-c4ccc(C(F)(F)F)cc4)cnc3cn2)c1 [Compound 328]
Second: COc1ccc(-c2cnc3cnc(CN(C)c4ccc(C)cn4)cn23)cn1 [Compound 338]
The EC50 of the first is 3.7-fold lower: 1090 nM for the first, 4080 nM for the second. The first is the more potent here.

Same assay, conditions: Plasmodium falciparum, Erythrocyte, 72 h, NF54 or 3D7 infected human erythrocytes, 72 hours; read-out: EC50 (nM), inhibitory efficacy in delaying P. falciparum proliferation in infected human blood cells

`CN(C(=O)c1cn2c(-c3ccc(NC(=O)C4(CN)CC4)cc3)cnc2cn1)c1ccc(C#N)cc1` [Compound 307, 3-(4-{[1-(aminomethyl)cyclopropane]amido}phenyl)-N-(4-cyanophenyl)-N-methylimidazo[1,2-a]pyrazine-6-carboxamide] and `CN(C(=O)c1cn2c(-c3ccc(NC(C)(C)CN)cc3)cnc2cn1)c1ccc(C#N)cc1` [Compound 324, 3-{4-[(1-amino-2-methylpropan-2-yl)amino]phenyl}-N-(4-cyanophenyl)-N-methylimidazo[1,2-a]pyrazine-6-carboxamide] are within 1.5-fold of each other in EC50: 1070 nM for the first, 1230 nM for the second.

First: CN(C(=O)c1ccc(C(F)(F)F)nc1)c1cn2c(-c3ccc(C(F)(F)F)cc3)cnc2cn1 [Compound 308, N-methyl-6-(trifluoromethyl)-N-{3-[4-(trifluoromethyl)phenyl]imidazo[1,2-a]pyrazin-6-yl}pyridine-3-carboxamide]
Second: CN(C(=O)c1cn2c(-c3ccc(C(F)(F)F)cc3)cnc2cn1)c1ccc(C(F)(F)F)cn1 [Compound 337, N-methyl-3-[4-(trifluoromethyl)phenyl]-N-[5-(trifluoromethyl)pyridin-2-yl]imidazo[1,2-a]pyrazine-6-carboxamide]
The EC50 of the first is lower: 2020 nM for the first, over 7160 nM for the second.

Compared with `Cc1ccncc1N(C)C(=O)c1cn2c(-c3ccc(C(F)(F)F)cc3)cnc2cn1` [Compound 309, N-methyl-N-(4-methylpyridin-3-yl)-3-[4-(trifluoromethyl)phenyl]imidazo[1,2-a]pyrazine-6-carboxamide], `CN(C(=O)c1cn2c(-c3ccc(C(F)(F)F)cc3)cnc2cn1)c1cccnc1` [Compound 326, N-methyl-N-(pyridin-3-yl)-3-[4-(trifluoromethyl)phenyl]imidazo[1,2-a]pyrazine-6-carboxamide] is 3.4-fold higher in EC50: 611 nM for the first, 2090 nM for the second.

`CCOc1ccnc(N(C)C(=O)c2cn3c(-c4ccc(C(F)(F)F)cc4)cnc3cn2)c1` [Compound 310, N-(4-ethoxypyridin-2-yl)-N-methyl-3-[4-(trifluoromethyl)phenyl]imidazo[1,2-a]pyrazine-6-carboxamide] and `Cc1cnc(N(C)C(=O)c2cn3c(-c4ccc(C(F)(F)F)cc4)cnc3cn2)cn1` [Compound 327, N-methyl-N-(5-methylpyrazin-2-yl)-3-[4-(trifluoromethyl)phenyl]imidazo[1,2-a]pyrazine-6-carboxamide] are within 1.5-fold of each other in EC50: 2480 nM for the first, 3310 nM for the second.

`COc1ccc(C(=O)N(C)c2cn3c(-c4ccc(C(F)(F)F)cc4)cnc3cn2)cc1` [Compound 311, 4-methoxy-N-methyl-N-{3-[4-(trifluoromethyl)phenyl]imidazo[1,2-a]pyrazin-6-yl}benzamide] and `CN(C(=O)c1cn2c(-c3ccc(C(F)(F)F)cc3)cnc2cn1)c1ccc(S(C)(=O)=O)cn1` [Compound 317, N-(5-methanesulfonylpyridin-2-yl)-N-methyl-3-[4-(trifluoromethyl)phenyl]imidazo[1,2-a]pyrazine-6-carboxamide] are within 1.5-fold of each other in EC50: 2780 nM for the first, 1900 nM for the second.

Compared with `CN(C(=O)c1cn2c(-c3cnc4[nH]ccc4c3)cnc2cn1)c1ccc(Cl)nc1` [Compound 312, N-(6-chloropyridin-3-yl)-N-methyl-3-{1H-pyrrolo[2,3-b]pyridin-5-yl}imidazo[1,2-a]pyrazine-6-carboxamide], `COc1ccc(-c2cnc3cnc(C(=O)N(C)c4ccc(Cl)nc4)cn23)cn1` [Compound 336, N-(6-chloropyridin-3-yl)-3-(6-methoxypyridin-3-yl)-N-methylimidazo[1,2-a]pyrazine-6-carboxamide] is 2.6-fold higher in EC50: 2640 nM for the first, 6930 nM for the second. The first is the more potent here.

Compared with `CN(C(=O)c1cn2c(-c3ccc(C(F)(F)F)cc3)cnc2cn1)c1ccc(-n2cncn2)cc1` [Compound 313, N-methyl-N-[4-(1H-1,2,4-triazol-1-yl)phenyl]-3-[4-(trifluoromethyl)phenyl]imidazo[1,2-a]pyrazine-6-carboxamide], `CN(C(=O)c1cn2c(-c3ccc(C(F)(F)F)cc3)cnc2cn1)c1ccnc(C(F)(F)F)c1` [Compound 329, N-methyl-3-[4-(trifluoromethyl)phenyl]-N-[2-(trifluoromethyl)pyridin-4-yl]imidazo[1,2-a]pyrazine-6-carboxamide] is 2.1-fold higher in EC50: 1320 nM for the first, 2760 nM for the second. The first is the more potent here.

`CN(C(=O)c1cn2c(-c3ccc(NS(C)(=O)=O)cc3)cnc2cn1)c1ccc(C#N)cc1` [Compound 314, N-(4-cyanophenyl)-3-(4-methanesulfonamidophenyl)-N-methylimidazo[1,2-a]pyrazine-6-carboxamide] and `Cc1noc(-c2ccc(-c3cnc4cnc(C(=O)N(C)c5ccc(C#N)cc5)cn34)cc2)n1` [Compound 339, N-(4-cyanophenyl)-N-methyl-3-[4-(3-methyl-1,2,4-oxadiazol-5-yl)phenyl]imidazo[1,2-a]pyrazine-6-carboxamide] are within 1.5-fold of each other in EC50: 1040 nM for the first, 1260 nM for the second.

`N#Cc1ccc2c(c1)OCCN2C(=O)c1cn2c(-c3ccc(C(F)(F)F)cc3)cnc2cn1` [Compound 315, 4-({3-[4-(trifluoromethyl)phenyl]imidazo[1,2-a]pyrazin-6-yl}carbonyl)-3,4-dihydro-2H-1,4-benzoxazine-7-carbonitrile] and `CS(=O)(=O)c1ccc2c(c1)CCCN2C(=O)c1cn2c(-c3ccc(C(F)(F)F)cc3)cnc2cn1` [Compound 316, 6-methanesulfonyl-1-({3-[4-(trifluoromethyl)phenyl]imidazo[1,2-a]pyrazin-6-yl}carbonyl)-1,2,3,4-tetrahydroquinoline] are within 1.5-fold of each other in EC50: 2420 nM for the first, 1890 nM for the second.

`COC(=O)Nc1ccc(-c2cnc3cnc(CN(C)c4ccc(C)cn4)cn23)cc1` [Compound 318, methyl N-[4-(6-{[methyl(5-methylpyridin-2-yl)amino]methyl}imidazo[1,2-a]pyrazin-3-yl)phenyl]carbamate] and `CN(C(=O)c1cn2c(-c3ccc(-n4cccn4)cc3)cnc2cn1)c1ccc(Cl)nc1` [Compound 330, N-(6-chloropyridin-3-yl)-N-methyl-3-[4-(1H-pyrazol-1-yl)phenyl]imidazo[1,2-a]pyrazine-6-carboxamide] are within 1.5-fold of each other in EC50: 2310 nM for the first, 1960 nM for the second.

`CN(C(=O)c1cn2c(-c3cc4ccccc4[nH]3)cnc2cn1)c1ccc(-c2cc3ccccc3[nH]2)nc1` [Compound 319, 3-(1H-indol-2-yl)-N-[6-(1H-indol-2-yl)pyridin-3-yl]-N-methylimidazo[1,2-a]pyrazine-6-carboxamide] and `CN(C(=O)c1cn2c(-c3ccc4occc4c3)cnc2cn1)c1ccc(Cl)nc1` [Compound 325, 3-(1-benzofuran-5-yl)-N-(6-chloropyridin-3-yl)-N-methylimidazo[1,2-a]pyrazine-6-carboxamide] are within 1.5-fold of each other in EC50: 3140 nM for the first, 4140 nM for the second.

Going from `Cc1n[nH]c2ccc(-c3cnc4cnc(C(=O)N(C)c5ccc(Cl)nc5)cn34)cc12` [Compound 320, N-(6-chloropyridin-3-yl)-N-methyl-3-(3-methyl-1H-indazol-5-yl)imidazo[1,2-a]pyrazine-6-carboxamide] to `CN(C(=O)c1cn2c(-c3ccc(C(F)(F)F)c(F)c3)cnc2cn1)c1ccc(Cl)nc1` [Compound 332, N-(6-chloropyridin-3-yl)-3-[3-fluoro-4-(trifluoromethyl)phenyl]-N-methylimidazo[1,2-a]pyrazine-6-carboxamide], the EC50 rises from 2210 nM to 3410 nM (1.5-fold).

Compared with `CN(C(=O)c1cn2c(-c3ccc(C(F)(F)F)cc3)cnc2cn1)c1ccc(N2CCOCC2)cn1` [Compound 321, N-methyl-N-[5-(morpholin-4-yl)pyridin-2-yl]-3-[4-(trifluoromethyl)phenyl]imidazo[1,2-a]pyrazine-6-carboxamide], `CN(C(=O)c1cn2c(-c3ccc(N4CCOCC4)cc3)cnc2cn1)c1ccc(Cl)nc1` [Compound 340, N-(6-chloropyridin-3-yl)-N-methyl-3-[4-(morpholin-4-yl)phenyl]imidazo[1,2-a]pyrazine-6-carboxamide] is 3-fold higher in EC50: 2260 nM for the first, 6850 nM for the second.

First: CN(C(=O)N1CCC(F)CC1)c1cn2c(-c3ccc(C(F)(F)F)cc3)cnc2cn1 [Compound 322, 4-fluoro-N-methyl-N-{3-[4-(trifluoromethyl)phenyl]imidazo[1,2-a]pyrazin-6-yl}piperidine-1-carboxamide]
Second: CCc1ccnc(NC(=O)c2cn3c(-c4ccc(C(F)(F)F)cc4)cnc3cn2)c1 [Compound 334, N-(4-ethylpyridin-2-yl)-3-[4-(trifluoromethyl)phenyl]imidazo[1,2-a]pyrazine-6-carboxamide]
The EC50 of the first is lower: 2710 nM for the first, over 5190 nM for the second.

Going from `CNC(=O)c1ccc(-c2cnc3cnc(C(=O)N(C)c4ccc(C#N)cc4)cn23)cn1` [Compound 331, 5-{6-[(4-cyanophenyl)(methyl)carbamoyl]imidazo[1,2-a]pyrazin-3-yl}-N-methylpyridine-2-carboxamide] to `COc1ncc(-c2cnc3cnc(C(=O)N(C)c4ccc(C#N)cc4)cn23)cn1` [Compound 333, N-(4-cyanophenyl)-3-(2-methoxypyrimidin-5-yl)-N-methylimidazo[1,2-a]pyrazine-6-carboxamide], the EC50 rises from 1740 nM to 4130 nM (2.4-fold). The first is the more potent here.

`COc1cncc(-c2cnc3cnc(C(=O)N(C)c4ccc(C#N)cc4)cn23)n1` [Compound 335, N-(4-cyanophenyl)-3-(6-methoxypyrazin-2-yl)-N-methylimidazo[1,2-a]pyrazine-6-carboxamide] and `CN(C(=O)c1cn2c(-c3ccc(C#N)cc3)c(C(F)(F)F)nc2cn1)c1ccc(C#N)cc1` [Compound 341, N,3-bis(4-cyanophenyl)-N-methyl-2-(trifluoromethyl)imidazo[1,2-a]pyrazine-6-carboxamide] are within 1.5-fold of each other in EC50: 5340 nM for the first, 5790 nM for the second.
